Laboratory results from US12240853B2, “Compounds useful in HIV therapy” (GlaxoSmithKline Intellectual Property (No.2) Limited, priority 2019, dated 2025).

What was measured:
[1] = EFdA rat PK studies (SC and IM); format: in vivo, Wistar Han rats
From the text: A total of seven naïve male Wistar Han rats, 200-250 g, were received from the supplier equipped with a surgically-implanted jugular vein catheter (JVC) for blood sample collection. Following an acclimation period, the animals were assigned to the study based on acceptable health as determined by a staff veterinarian and catheter patency. Animals were placed into two groups of 3 rats per group. Fasting of the animals before or after dosing was not required.
On Day 1 each animal in Group 1 received a single subcutaneous injection of prepared test article at a target dose level of 20 mg/kg and at a dose volume of 0.33 mL/kg. Each animal in Group 2 received a single intramuscular injection of prepared test article into a thigh muscle at a target dose level of 20 mg/kg and at a dose volume of 0.33 mL/kg. The injection sites were shaved prior to dosing and identified with an indelible marker for daily monitoring during the study. The animals were manually restrained for dosing and were not sedated. The dose suspension was mixed well by inversion before each dose to ensure homogeneity. […] In addition, all animals are monitored twice daily by the veterinary staff for clinical abnormalities. […]
The PK plasma samples were analyzed by the Testing Facility to determine the concentration of EFdA using an LC-MS/MS Research Grade Assay (RGA-1) with sensitivity to 0.1 ng/mL. […]

[2] = tested on: HIV pseudotyped virus, M184V; format: cell-based; details: U373 cells (CD4, CXCR4 or CCR5), luciferase signal after 3 days
[3] = tested on: HIV pseudotyped virus (NL4-3 provirus, luciferase reporter), WT; assay: PSV (pseudotyped virus) assay, WT; details: Human immunodeficiency virus 1, NL43, 72 h, read-out: WT IC50

Detectable duration of exposure of EFdA ([1]; IM and SC administration of 20 mg/kg EFdA) | Compound | Clinical observations and injection site reactions ([1]; 20 mg/kg single SC or IM injection, study period to Day 29) | IC50 [2] [nM] | IC50 [3] [nM]
less than 8 days | C#C[C@]1(CO)O[C@@H](n2cnc3c(N)nc(F)nc32)C[C@@H]1O [EFdA, (2R,3S,5R)-5-(6-amino-2-fluoro-9H-purin-9-yl)-2-ethynyl-2-(hydroxymethyl)tetrahydrofuran-3-ol] | No abnormal clinical observations and no injection site reactions |  | 
 | C#C[C@]1(COC(=O)C(CCC)CCC)O[C@@H](n2cnc3c(N)nc(F)nc32)C[C@@H]1OC(=O)CCC [Example 30, ((2R,3S,5R)-5-(6-amino-2-fluoro-9H-purin-9-yl)-3-(butyryloxy)-2-ethynyltetrahydrofuran-2-yl)methyl 2-propylpentanoate] |  | 1500 | 334
 | C#C[C@@]12COC(=O)CCCCCCCCCCCCC(=O)O[C@H]1C[C@H](n1cnc3c(N)nc(F)nc31)O2 [Example 33, (2R,3aS,20aR)-2-(6-amino-2-fluoro-9H-purin-9-yl)-20a-ethynylhexadecahydro-2H-furo[3,2-b][1,5]dioxacyclononadecine-5,18-dione] |  | 86 | 17
 | C#C[C@]1(COC(=O)CNC(=O)CCCCCC)O[C@@H](n2cnc3c(N)nc(F)nc32)C[C@@H]1O [Example 34, ((2R,3S,5R)-5-(6-amino-2-fluoro-9H-purin-9-yl)-2-ethynyl-3-hydroxytetrahydrofuran-2-yl)methyl Heptanoylglycinate] |  | 25 | 4
 | C#C[C@]1(COC(=O)CNC(=O)CCCCCCCCCCCCC)O[C@@H](n2cnc3c(N)nc(F)nc32)C[C@@H]1O [Example 35, ((2R,3S,5R)-5-(6-amino-2-fluoro-9H-purin-9-yl)-2-ethynyl-3-hydroxytetrahydrofuran-2-yl)methyl Tetradecanoylglycinate] |  | 9 | 1
 | C#C[C@]1(COC(=O)[C@H](C)NC(=O)CCCCCC)O[C@@H](n2cnc3c(N)nc(F)nc32)C[C@@H]1O [Example 36, ((2R,3S,5R)-5-(6-amino-2-fluoro-9H-purin-9-yl)-2-ethynyl-3-hydroxytetrahydrofuran-2-yl)methyl heptanoyl-L-alaninate] |  | 21 | 4
